Test results: the CheMixHub viscosity set
± gives the uncertainty stated by the source.

Experiment: xn = mol fraction of the nth substance listed

Fc1c(F)c(F)c(F)c(F)c1F + Cc1cccc(C)n1
viscosity [mPa·s], 101.33 kPa
Settings | x2 = 0.091 | x2 = 0.165 | x2 = 0.229 | x2 = 0.283 | x2 = 0.497 | x2 = 0.5 | x2 = 0.712 | x2 = 0.767 | x2 = 0.832 | x2 = 0.908
293.15 K | – | 0.9415 ± 0.0075 | 0.9457 ± 0.0076 | – | – | 0.9333 ± 0.0075 | 0.8943 ± 0.0072 | 0.8824 ± 0.0071 | 0.8673 ± 0.0069 | 0.8549 ± 0.0068
298.15 K | – | 0.869 ± 0.007 | 0.8709 ± 0.007 | 0.8665 ± 0.0069 | 0.8598 ± 0.0069 | 0.8584 ± 0.0069 | 0.8268 ± 0.0066 | 0.8175 ± 0.0065 | 0.8052 ± 0.0064 | 0.7928 ± 0.0063
308.15 K | – | 0.7494 ± 0.006 | 0.7485 ± 0.006 | 0.7439 ± 0.006 | 0.7372 ± 0.0059 | 0.736 ± 0.0059 | 0.7137 ± 0.0057 | 0.7072 ± 0.0057 | 0.6997 ± 0.0056 | 0.6916 ± 0.0055
318.15 K | 0.6629 ± 0.0053 | 0.6586 ± 0.0053 | 0.6562 ± 0.0052 | – | 0.6401 ± 0.0051 | 0.6401 ± 0.0051 | 0.6252 ± 0.005 | 0.6209 ± 0.005 | 0.616 ± 0.0049 | 0.611 ± 0.0049

Cc1cccc(N)c1 + CC1CCCCC1
303.15 K, 101.33 kPa
Settings | viscosity [mPa·s]
x1 = 0.204 | 0.79 ± 0.018
x1 = 0.4 | 0.96 ± 0.018
x1 = 0.6 | 1.25 ± 0.02
x1 = 0.8 | 1.75 ± 0.023

CCCCC(=O)O + CCCCCO
viscosity [mPa·s], 100 kPa
Settings | x1 = 0.0805 | x1 = 0.1593 | x1 = 0.2392 | x1 = 0.3508 | x1 = 0.4406 | x1 = 0.5609 | x1 = 0.6497 | x1 = 0.7392 | x1 = 0.8517 | x1 = 0.9395
293.15 K | 3.93 ± 0.08 | 3.83 ± 0.08 | 3.71 ± 0.08 | 3.54 ± 0.08 | 3.38 ± 0.08 | 3.15 ± 0.08 | 2.98 ± 0.08 | 2.79 ± 0.08 | 2.56 ± 0.08 | 2.37 ± 0.08
303.15 K | 2.98 ± 0.08 | 2.92 ± 0.08 | 2.85 ± 0.08 | 2.74 ± 0.08 | 2.63 ± 0.08 | 2.48 ± 0.08 | 2.36 ± 0.08 | 2.24 ± 0.08 | 2.08 ± 0.08 | 1.96 ± 0.08
313.15 K | 2.29 ± 0.08 | 2.25 ± 0.08 | 2.21 ± 0.08 | 2.14 ± 0.08 | 2.07 ± 0.08 | 1.97 ± 0.08 | 1.9 ± 0.08 | 1.82 ± 0.08 | 1.71 ± 0.08 | 1.63 ± 0.08
323.15 K | 1.79 ± 0.08 | 1.76 ± 0.08 | 1.73 ± 0.08 | 1.68 ± 0.08 | 1.64 ± 0.08 | 1.58 ± 0.08 | 1.54 ± 0.08 | 1.49 ± 0.08 | 1.43 ± 0.08 | 1.38 ± 0.08

C=C1CCC2CC1C2(C)C (centres undefined) + Cc1cc(C)cc(C)c1
viscosity [mPa·s], 101 kPa
Settings | x2 = 0.2198 | x2 = 0.3257 | x2 = 0.429 | x2 = 0.5299 | x2 = 0.6283 | x2 = 0.7245 | x2 = 0.8185 | x2 = 0.9103
303.15 K | 1.254 ± 0.029 | 1.108 ± 0.026 | 0.981 ± 0.024 | 0.871 ± 0.021 | 0.799 ± 0.02 | 0.743 ± 0.019 | 0.696 ± 0.018 | 0.661 ± 0.017
308.5 K | 1.167 ± 0.028 | 1.032 ± 0.025 | 0.915 ± 0.022 | 0.819 ± 0.02 | 0.749 ± 0.019 | 0.695 ± 0.018 | 0.653 ± 0.017 | 0.622 ± 0.016
313.15 K | 1.082 ± 0.026 | 0.959 ± 0.023 | 0.854 ± 0.021 | 0.768 ± 0.019 | 0.698 ± 0.018 | 0.645 ± 0.017 | 0.606 ± 0.016 | 0.576 ± 0.015

C=C1CCC2CC1C2(C)C (centres undefined) + Cc1cccc(C)c1
viscosity [mPa·s], 101 kPa
Settings | x2 = 0.2415 | x2 = 0.3531 | x2 = 0.4592 | x2 = 0.5602 | x2 = 0.6564 | x2 = 0.7482 | x2 = 0.8359 | x2 = 0.9198
303.15 K | 1.225 ± 0.029 | 1.049 ± 0.025 | 0.915 ± 0.022 | 0.799 ± 0.02 | 0.737 ± 0.019 | 0.682 ± 0.017 | 0.637 ± 0.016 | 0.602 ± 0.016
308.5 K | 1.137 ± 0.027 | 0.98 ± 0.024 | 0.85 ± 0.021 | 0.748 ± 0.019 | 0.685 ± 0.017 | 0.639 ± 0.017 | 0.6 ± 0.016 | 0.568 ± 0.015
313.15 K | 1.05 ± 0.025 | 0.91 ± 0.022 | 0.787 ± 0.02 | 0.697 ± 0.018 | 0.637 ± 0.016 | 0.593 ± 0.016 | 0.563 ± 0.015 | 0.542 ± 0.014

CCCCCCCCCCCCOC(C)=O + CCCCCC
303.15 K, 101.3 kPa
Settings | viscosity [mPa·s]
x1 = 0.1919 | 0.5038 ± 0.0036
x1 = 0.3182 | 0.7197 ± 0.005
x1 = 0.4783 | 1.079 ± 0.0074
x1 = 0.522 | 1.2 ± 0.0083
x1 = 0.748 | 1.958 ± 0.014

CCCCC(=O)O + CCCCCCCO
viscosity [mPa·s], 100 kPa
Settings | x1 = 0.0814 | x1 = 0.1667 | x1 = 0.2436 | x1 = 0.3521 | x1 = 0.4395 | x1 = 0.5617 | x1 = 0.6566 | x1 = 0.7424 | x1 = 0.8518 | x1 = 0.9437
293.15 K | 6.67 ± 0.09 | 6.29 ± 0.09 | 5.94 ± 0.09 | 5.44 ± 0.09 | 5.02 ± 0.08 | 4.43 ± 0.08 | 3.96 ± 0.08 | 3.54 ± 0.08 | 2.99 ± 0.08 | 2.53 ± 0.08
303.15 K | 4.79 ± 0.08 | 4.54 ± 0.08 | 4.31 ± 0.08 | 3.98 ± 0.08 | 3.7 ± 0.08 | 3.31 ± 0.08 | 3 ± 0.08 | 2.72 ± 0.08 | 2.36 ± 0.08 | 2.06 ± 0.08
313.15 K | 3.52 ± 0.08 | 3.32 ± 0.08 | 3.14 ± 0.08 | 2.9 ± 0.08 | 2.72 ± 0.08 | 2.46 ± 0.08 | 2.27 ± 0.08 | 2.09 ± 0.08 | 1.87 ± 0.08 | 1.68 ± 0.08
323.15 K | 2.66 ± 0.08 | 2.53 ± 0.08 | 2.42 ± 0.08 | 2.26 ± 0.08 | 2.13 ± 0.08 | 1.96 ± 0.08 | 1.83 ± 0.08 | 1.71 ± 0.08 | 1.56 ± 0.08 | 1.43 ± 0.08

CCCCCCCCCCCC(=O)O + CC(C)[C@@H]1CC[C@@H](C)C[C@H]1O
viscosity [mPa·s]
Settings | 293.15 K | 298.15 K | 303.15 K | 308.15 K | 313.15 K | 318.15 K | 323.15 K
100 kPa, x1 = 0.25 | – | 28.1 ± 0.26 | 20.91 ± 0.19 | 15.93 ± 0.15 | 12.4 ± 0.11 | 9.84 ± 0.09 | 7.94 ± 0.07
100 kPa, x2 = 0.33 | 33.06 ± 0.56 | 24.42 ± 0.41 | 18.63 ± 0.32 | 14.51 ± 0.24 | 11.45 ± 0.19 | 9.293 ± 0.16 | 7.61 ± 0.13
101 kPa, x1 = 0.333 | 21.81 ± 0.85 | – | 12.5 ± 0.5 | – | 7.657 ± 0.3 | – | 5.112 ± 0.2

CCCCO + CCCO
Settings | viscosity [mPa·s]
293.15 K, 101.33 kPa, x2 = 0.152 | 2.84 ± 0.082
293.15 K, 101.33 kPa, x2 = 0.3302 | 2.715 ± 0.079
293.15 K, 101.33 kPa, x2 = 0.5008 | 2.566 ± 0.075
293.15 K, 101.33 kPa, x2 = 0.616 | 2.474 ± 0.072
293.15 K, 101.33 kPa, x2 = 0.7172 | 2.41 ± 0.071
293.15 K, 101.33 kPa, x2 = 0.8933 | 2.282 ± 0.067
298.15 K, 101 kPa, x1 = 0.1009 | 2.024 ± 0.027
298.15 K, 101 kPa, x1 = 0.2 | 2.082 ± 0.027
298.15 K, 101 kPa, x1 = 0.3013 | 2.135 ± 0.028
298.15 K, 101 kPa, x1 = 0.4026 | 2.194 ± 0.029
298.15 K, 101 kPa, x1 = 0.5009 | 2.254 ± 0.03
298.15 K, 101 kPa, x1 = 0.6055 | 2.319 ± 0.031
298.15 K, 101 kPa, x1 = 0.6279 | 2.326 ± 0.031
298.15 K, 101 kPa, x1 = 0.7983 | 2.432 ± 0.032
298.15 K, 101 kPa, x1 = 0.8992 | 2.494 ± 0.033
298.15 K, 101.33 kPa, x2 = 0.1147 | 2.507 ± 0.073
298.15 K, 101.33 kPa, x2 = 0.3211 | 2.378 ± 0.07
298.15 K, 101.33 kPa, x2 = 0.4966 | 2.261 ± 0.067
298.15 K, 101.33 kPa, x2 = 0.6315 | 2.172 ± 0.064
298.15 K, 101.33 kPa, x2 = 0.7297 | 2.118 ± 0.063
298.15 K, 101.33 kPa, x2 = 0.9322 | 2.001 ± 0.06
